What was measured:
[1] = Tasting by a professional panel in diluted low salt soy sauce
Experimental: Kikkoman low salt soy sauce was diluted 100 times. Part of the solution was kept as the reference. To another part was dosed a compound of formula (I). The solutions were tasted by a professional panel.
5.a: 0.1 ppm of 5-oxo-1-stearoylpyrrolidine-2-carboxylic acid (C18:0 pyro-Glu) was added to tap water containing 1% salt reduced kikoman soy sauce (9% salt).
5.b: 0.5 ppm of 5-oxo-1-palmitoylpyrrolidine-2-carboxylic acid (C16:0 pyro-Glu) was added to salt reduced kikoman soy sauce (9% salt).

[2] = Tasting in chicken bouillon base (0.7% salt, 0.5% fat)
Experimental: A compound of formula (I) in a concentration as indicated below was added to a chicken bouillon base (0.7% salt, 0.5% fat). The resultant composition was compared with a chicken bouillon without a compound of formula (I).

[3] = Tasting in fried potato snack product with cheese seasoning (35% fat)
Experimental: A snack product consisting of a fried potato base, containing 35% fat and flavored with cheese seasoning containing salt, MSG, dairy, organic acids, sugars, and a flavour formulation. A compound of formula (I) was added to the snack product at the indicated levels and the tasting results are reported as follows (compared with a snack product without a compound of formula (I)): […]

[4] = Expert tasting in mango flavoured still beverage
Experimental: In a Mango flavoured still beverage, sweetened with 8% sucrose & containing 0.1% citric acid and 1% clear mango juice flavoured with proprietary Mango flavour @ 0.05%, C16:0 pyro-Glu and C18:2-Theanine were added, as such (separate) and in combination.
All samples were evaluated by expert tasters. Tasters were asked to describe the samples focusing on authentic taste, juicy mouthfeel, enhancement, richness, juiciness, long lastingness, salivation, sweetness.
*Base: water, 8% sucrose, 0.1% citric acid, 1% clear mango juice (i.e. very low juice concentration), flavoured with Mango flavor (dosed at 0.05%).

[5] = Expert tasting in orange flavoured Tang powdered soft drink
Experimental: In an orange flavoured Tang powdered soft drink (market product) sweetened with sucrose plus high intensity sweetener and containing citric acid, C18:0 pyro-Glu, and C18:2-Theanine were tested.
All samples were evaluated by expert tasters. Tasters were asked to describe the samples focusing on authentic taste, mouthfeel & body, enhancement, richness, juiciness, long lastingness, salivation, sweetness, masking off notes of high intensity sweetener.

[6] = Tasting in brewed green tea against reference
Experimental: A green tea was brewed by taking 0.6 g of tea/100 ml of water. The water was heated to 80° C. and the tea leaves were left in the solution for 5 minutes. The tea solution was allowed to cool down to room temperature. Part of the solution was kept as a reference. To another part was added a compound of formula (I) in a concentration as indicated below. The solutions were tasted against the reference (i.e. a green tea without a compound of formula (I)).

[7] = 0.5 ppm in chicken bouillon base

SMILES	taste description versus reference ([1]; 0.5 ppm in salt reduced kikoman soy sauce (9% salt))	taste description versus chicken bouillon without compound [2, 7]	taste description versus snack product without compound ([3]; 0.5 ppm in cheese flavoured fried potato snack)	taste description by expert tasters ([4]; 0.1 ppm in mango still beverage base)	taste description versus reference without the compound ([1]; 0.1 ppm in tap water containing 1% salt reduced kikoman soy sauce (9% salt))	taste description versus chicken bouillon without compound ([2]; 0.2 ppm in chicken bouillon base)	taste description versus snack product without compound ([3]; 1 ppm in cheese flavoured fried potato snack)	taste description by expert tasters ([5]; 0.1 ppm in orange flavoured Tang base)	taste description versus green tea reference ([6]; 0.2 ppm in green tea)	taste description versus snack product without compound ([3]; 0.1 ppm in cheese flavoured fried potato snack)	taste description by expert tasters ([5]; 1 ppm in orange flavoured Tang base)	taste description by expert tasters ([4]; 1 ppm in mango still beverage base)	taste description versus green tea reference ([6]; 0.02 ppm in green tea)	taste description versus green tea reference ([6]; 1 ppb in green tea)	taste description versus green tea reference ([6]; 10 ppb in green tea)
CCCCCCCCCCCCCCCC(=O)N1C(=O)CCC1C(=O)O (stereo not shown) [C16:0 pyro-Glu, 5-oxo-1-palmitoylpyrrolidine-2-carboxylic acid]	a stronger saltiness and to be more lingering, more umami	Nice strong salty, umami lingering body, better meat profile	more rich, more cheesy, more umami. More salty	very juicy and long lasting sweet, salivating	–	–	–	–	–	–	–	–	–	–	–
CCCCCCCCCCCCCCCCCC(=O)N1C(=O)CCC1C(=O)O (stereo not shown) [C18:0 pyro-Glu, 5-oxo-1-stearoylpyrrolidine-2-carboxylic acid]	–	–	–	–	more body and to be more umami, more salty, longer lasting and richer	More umami lingering body, more salty, more rich	more full, more cheesy, longer lasting, more salty	enhanced fruitiness, enhanced mouthfeel. Additionally, the off-notes of the high intensity sweetener were suppressed	more complex and had more mouthfeel	–	–	–	–	–	–
CCCCC/C=C\C/C=C\CCCCCCCC(=O)NC(CCC(=O)NCC)C(=O)O (stereo not shown) [C18:2-Theanine, 5-(ethylamino)-2-[(9Z,12Z)-octadeca-9,12-dienoylamino]-5-oxopentanoic acid]	–	More body and fatty notes, salivating	–	–	–	–	–	–	–	more fatty, more umami, more succulent	enhances sweet juicy orange notes,more body, more mouthfeel. Additionally, the off-notes of the high intensity sweetener were suppressed	fatty skin-like, very juicy, authentic mango, more mouthfeel, long lasting mango taste	better green tea character, was less bitter and had a better mouthfeel	more authentic tea than the reference and to have a nice balance between bitterness and astringency	more astringent, more body and somewhat more bitter umami than the reference
